Data on five compounds can be found in PMC11229689, “In Vitro Selection of Macrocyclic L-α/D-α/β/γ-Hybrid Peptides Targeting IFN-γ/IFNGR1 Protein–Protein Interaction” (Journal of the American Chemical Society, 2024).

Structures are written as SMILES. *1 amine or outer side, *2 acyl side, *3 side chain or, on linkers, in order; H or OH if unused. Where a SMILES comes first, the peptide text is derived from it. Bridges are numbered along the chain shown (N, C = ends). [ ]: non-standard residue; d: D form. Acbc(trans-1,3) = O=C([C@H]1C[C@H](N[*:1])C1)[*:2]; Acbc(cis-1,3) = O=C([C@H]1C[C@@H](N[*:1])C1)[*:2]; X1 = O=C([C@@H]1CCC[C@@H]1N[*:1])[*:2]

One experiment concerns the target T1, Fc-tagged human IFNGR1 (Homo sapiens, UniProt P15260).
T1 construct: purchased ACROBiosystems
T1 sequence (P15260 18-489): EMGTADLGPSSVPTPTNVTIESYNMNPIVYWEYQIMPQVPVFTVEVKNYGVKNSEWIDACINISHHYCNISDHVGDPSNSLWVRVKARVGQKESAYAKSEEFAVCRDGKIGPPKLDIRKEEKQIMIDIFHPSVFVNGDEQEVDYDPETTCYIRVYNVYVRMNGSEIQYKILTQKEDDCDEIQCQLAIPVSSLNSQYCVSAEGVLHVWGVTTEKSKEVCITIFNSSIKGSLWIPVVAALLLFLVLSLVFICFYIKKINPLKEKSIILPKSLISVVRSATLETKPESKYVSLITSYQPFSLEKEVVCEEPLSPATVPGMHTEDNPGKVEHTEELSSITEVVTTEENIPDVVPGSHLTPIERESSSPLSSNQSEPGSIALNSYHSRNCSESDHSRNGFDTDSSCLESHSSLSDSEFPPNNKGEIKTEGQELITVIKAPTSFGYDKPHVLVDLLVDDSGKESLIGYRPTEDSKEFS
The experiment can be described thus: Binding kinetics and affinity to IFNGR1 by surface plasmon resonance (SPR). As to conditions: SPR, 25 °C, 1:1 binding model; for Kd: read-out: KD; for kon: single-cycle kinetics, read-out: ka. As to the method:
Binding affinities of IA1 and IA2 against IFNGR1 were evaluated by surface plasmon resonance (SPR) (Table 1 and SI Figure S6A). […] To investigate the contribution of the N-terminal [yVPβ^1RR] motif and β^1 residue in IA1, three scrambled peptides IA1s1–3 and a variant IA1β^14A were synthesized and evaluated. […] We next evaluated inhibitory activities of IA1 and IA2 against the ligand–receptor PPI between IFN-γ and IFNGR1 using AlphaLISA (Table 1 and SI Figure S7).[37] […] We also determined the serum half-lives of IA1 and IA2, considering peptidase resistance as an important factor for therapeutic peptides.[24] A sample peptide and a peptidase-resistant internal standard peptide were coincubated in human serum at 37 °C, and the relative amount of the remaining sample peptide was estimated by LC/MS. […]
Evaluation of binding affinity of peptides by surface plasmon resonance The binding affinities of selected peptides and IFNGR1 were analyzed by surface plasmon resonance (SPR) using a Biacore T200 instrument (Cytiva) at 25 °C with the following running buffer: 10 mM Tris-HCl (pH 8.0), 150 mM NaCl, 0.05% (v/v) Tween 20 , and 0.1% (v/v) DMSO. Fc-tagged IFNGR1 was immobilized on a series S sensor chip protein G (Cytiva) to a surface density of 1,200–1,600 response units following the immobilization protocols provided by Cytiva. The kinetic constants were determined by a single-cycle kinetics method by the injection of five different concentrations (twofold dilution series) of each peptide at a flow rate of 30 μL/min. The resulting sensorgrams were fitted to the standard 1:1 interaction model and analyzed using Biacore evaluation software. […]
Background: Surface plasmon resonance follows binding to a sensor surface in real time, without labels.

The target of experiment [1] is T2, IFN-γ/IFNGR1 protein–protein interaction (Homo sapiens, UniProt P15260).
T2 construct: purchased ACROBiosystems
T2 sequence (P15260 18-245 limits assumed): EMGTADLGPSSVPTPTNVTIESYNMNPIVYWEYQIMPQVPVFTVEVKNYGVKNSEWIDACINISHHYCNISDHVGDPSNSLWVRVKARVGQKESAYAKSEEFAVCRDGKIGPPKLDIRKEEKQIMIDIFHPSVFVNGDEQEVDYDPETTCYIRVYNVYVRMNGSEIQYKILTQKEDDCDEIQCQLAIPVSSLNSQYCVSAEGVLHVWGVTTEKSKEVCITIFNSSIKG
Description: IFNGR1 inhibition assay using AlphaLISA. Conditions: four-parameter dose–response fit, n = 3. The format is biochemical. As for the experimental part:
IFNGR1 inhibition assay using AlphaLISA
The inhibitory activity of peptides against IFN-γ/IFNGR1 protein–protein interaction (PPI) was determined by AlphaLISA.5 Peptides, proteins, and beads were diluted in AlphaLISA immunoassay buffer (PerkinElmer, AL000C). 3.6 μL of 5 nM Fc-tagged IFNGR1 and 3.6 μL of synthetic peptides were mixed in AlphaPlate-384 Shallow Well (PerkinElmer) and preincubated at 25 °C for 10 min. 3.6 μL of 15 nM biotin-tagged IFN-γ was then added to the mix and incubated at 25 °C for 20 min. 3.6 μL each human IgG acceptor beads (PerkinElmer) and streptavidin donor beads (PerkinElmer) were added to the above mix and incubated at 25 °C for 30 min in dark place. Emission at 615 nm was measured […]
by EnSpire Multimode Plate Reader (PerkinElmer). The fraction of bound IFN-γ/IFNGR1 was calculated by the intensity of emission in the presence of peptide divided by that in the absence of […]
peptide. […]
Puromycin. Normocin, Blasticidin, Zeocin, and Puromycin were excluded when conducting the experiments. To evaluate the cellular activity of peptides, peptide mixtures were added to 50,000 cells/well in a flat-bottom 96-well plate and pre-incubated for 30 min at 37 °C before stimulation.
Subsequently, 1 ng/mL of recombinant IFN-γ (InvivoGen) was added to each well in a final reaction volume of 200 μL, followed by incubation for 20 h at 37 °C. 20 μL of supernatants from the induced cells was added to 180 μL Q U A N T I-Blue TM solution (InvivoGen). After further incubation for 3 h at 37 °C, the expression levels of the secreted embryonic alkaline phosphatase (SEAP) were determined by reading the O.D. at 650 nm on a Tecan M1000 PRO microplate reader (Tecan Group) and normalized to the non-treated well. IC50 value was analyzed by a normalized dose-response curve fitting by using GraphPad Prism 9.
HEK-DualTM IFN-γ cells were used for the cell viability assay. 10,000 cells/well were added to each well in a flat-bottom 96-well plate. After 24 h, peptide mixtures were added to each well in a final volume of 100 μL. After further incubation for 24 h, 10 μL CCK-8 reagent (Dojindo) was added to […]
(Bead proximity is the source of the signal in Alpha formats.)

One may read the Kd as the constant that tells how readily two partners part at equilibrium. A word on the IC50: it is the concentration needed to halve the response being measured. A lower IC50 goes with greater potency. Turning to `CC(C)[C@@H]1NC(=O)[C@@H](Cc2ccc(O)cc2)NC(=O)CSC[C@H](C(N)=O)NC(=O)[C@H](CCCNC(=N)N)NC(=O)[C@H](CO)NC(=O)[C@H](CCCNC(=N)N)NC(=O)[C@H](Cc2c[nH]cn2)NC(=O)CNC(=O)[C@H]2C[C@H](C2)NC(=O)[C@H](Cc2c[nH]cn2)NC(=O)[C@H](CC(N)=O)NC(=O)[C@H](CCCNC(=N)N)NC(=O)[C@H](CCCNC(=N)N)NC(=O)[C@@H]2CCC[C@@H]2NC(=O)[C@H](C)NC1=O` [IB1, ^AcyVAβ^1RRNHγ^1GHRSRc-NH2] ({CH2CO}-[dY]VA[X1]RRNH[Acbc(cis-1,3)]GHRSR[dC]-NH2; thioether N-15), at Fc-tagged human IFNGR1, the Kd is 0.011 µM and the kon worked out at 650000 ± 20000 M⁻¹ s⁻¹. The same compound returned an IC50 in experiment [1] of 0.012 ± 0.003 µM.

Consider `CC(C)[C@@H]1NC(=O)[C@@H](Cc2ccc(O)cc2)NC(=O)CSC[C@H](C(N)=O)NC(=O)[C@H](C)NC(=O)[C@H](CO)NC(=O)[C@H](CCCNC(=N)N)NC(=O)[C@H](CCCNC(=N)N)NC(=O)CNC(=O)[C@H]2C[C@H](C2)NC(=O)[C@H](Cc2c[nH]cn2)NC(=O)[C@H](CC(N)=O)NC(=O)[C@H](CCCNC(=N)N)NC(=O)[C@H](CCCNC(=N)N)NC(=O)[C@@H]2CCC[C@@H]2NC(=O)[C@H](C)NC1=O` [IB3, ^AcyVAβ^1RRNHγ^1GRRSAc-NH2] ({CH2CO}-[dY]VA[X1]RRNH[Acbc(cis-1,3)]GRRSA[dC]-NH2; thioether N-15), for which, on Fc-tagged human IFNGR1, the dissociation constant Kd came to 0.0095 ± 0.0007 µM and the kon was 930000 ± 420000 M⁻¹ s⁻¹. The IC50 in experiment [1] was 0.012 µM.

As for `CC(C)[C@@H]1NC(=O)[C@@H](Cc2ccc(O)cc2)NC(=O)CSC[C@H](C(N)=O)NC(=O)[C@H](CC(N)=O)NC(=O)[C@H](CO)NC(=O)[C@H](CCCNC(=N)N)NC(=O)[C@H]2C[C@H](C2)NC(=O)[C@H](Cc2c[nH]cn2)NC(=O)[C@H](CC(N)=O)NC(=O)[C@H]([C@@H](C)O)NC(=O)[C@H](Cc2c[nH]cn2)NC(=O)[C@H](CCCNC(=N)N)NC(=O)[C@H](CCCNC(=N)N)NC(=O)[C@@H]2CCC[C@@H]2NC(=O)[C@@H]2CCCN2C1=O` [IA1, ^AcyVPβ^1RRHTNHγ^1RSNc-NH2] ({CH2CO}-[dY]VP[X1]RRHTNH[Acbc(cis-1,3)]RSN[dC]-NH2; thioether N-15), on Fc-tagged human IFNGR1, the Kd amounted to 0.087 ± 0.002 µM and the kon worked out at 180000 M⁻¹ s⁻¹. This compound returned an IC50 in experiment [1] of 0.087 ± 0.015 µM.

With `CC(C)[C@@H]1NC(=O)[C@@H](Cc2ccc(O)cc2)NC(=O)CSC[C@H](C(N)=O)NC(=O)[C@H](C)NC(=O)[C@H](CO)NC(=O)[C@H](CCCNC(=N)N)NC(=O)[C@H](CCCNC(=N)N)NC(=O)CNC(=O)[C@H]2C[C@@H](C2)NC(=O)[C@H](Cc2c[nH]cn2)NC(=O)[C@H](CC(N)=O)NC(=O)[C@H](CCCNC(=N)N)NC(=O)[C@H](CCCNC(=N)N)NC(=O)[C@@H]2CCC[C@@H]2NC(=O)[C@H](C)NC1=O` [IB3γ^19γ^2, ^AcyVAβ^1RRNHγ^2GRRSAc-NH2] ({CH2CO}-[dY]VA[X1]RRNH[Acbc(trans-1,3)]GRRSA[dC]-NH2; thioether N-15), on Fc-tagged human IFNGR1, the Kd turned out to be 0.049 ± 0.007 µM and the kon came out at 470000 ± 320000 M⁻¹ s⁻¹. In experiment [1], this compound had an IC50 of 0.35 ± 0.03 µM.

For `CC(C)[C@@H]1NC(=O)[C@@H](Cc2ccc(O)cc2)NC(=O)CSC[C@H](C(N)=O)NC(=O)[C@H](C)NC(=O)[C@H](Cc2c[nH]cn2)NC(=O)[C@H](CCCNC(=N)N)NC(=O)[C@H](CCCNC(=N)N)NC(=O)CNC(=O)[C@H]2C[C@@H](C2)NC(=O)[C@H](Cc2c[nH]cn2)NC(=O)[C@H](CC(N)=O)NC(=O)[C@H](CCCNC(=N)N)NC(=O)[C@H](CCCNC(=N)N)NC(=O)[C@@H]2CCC[C@@H]2NC(=O)[C@H](C)NC1=O` [IB2γ^19γ^2, ^AcyVAβ^1RRNHγ^2GRRHAc-NH2] ({CH2CO}-[dY]VA[X1]RRNH[Acbc(trans-1,3)]GRRHA[dC]-NH2; thioether N-15), on Fc-tagged human IFNGR1, the Kd stood at 0.068 ± 0.012 µM and the kon came to 75000 ± 25000 M⁻¹ s⁻¹. Further, 0.68 ± 0.05 µM corresponded to half-maximal inhibition in experiment [1] (IC50).
